Reference: paper PMC8206078, “Identification of pyrogallol as a warhead in design of covalent inhibitors for the SARS-CoV-2 3CL protease” (Nature Communications, 2021)
pIC50: −log10 of the molar value. Where “and” joins values, the source holds several entries; their conditions need not be identical. Equal entries are not always repeated. Where two headings read alike, the source gives them in different places.

Assays:
[1] = target: T1, SARS-CoV-2 3CLpro (Severe acute respiratory syndrome coronavirus 2, UniProt P0DTD1); assay: biochemical; format: biochemical; details: for IC50: IC50 (µM)
[2] = target: T1, SARS-CoV-2 3CLpro
[3] = target: T1, SARS-CoV-2 3CLpro; details: read-out: KI
[4] = target: SARS-CoV-2 3CLpro / HEK293T lysate (Severe acute respiratory syndrome coronavirus 2, UniProt P0DTD1); format: binding
[5] = 6.25 µM, read-out: inhibition ratio (%)
[6] = 25 µM, read-out: inhibition ratio (%)
[7] = 50 µM, read-out: inhibition ratio (%)
[8] = read-out: Inhibition (%) @10 μM

`O=c1cc(-c2ccc(O)c(O)c2)oc2cc(O)cc(O)c12` [Luteolin] was tested, and the “Inhibition (%) @10 μM” value ([1]; 10 µM) was -4.1%.

In the case of (+)-Catechin, the “Inhibition (%) @10 μM” value [1] was 14.0%.

For Biochanin A, the “Inhibition (%) @10 μM” value [1] was 5.0%.

`O=C1c2c(O)cc(OP(=O)(Oc3ccccc3)Oc3ccccc3)cc2O[C@H](c2cc(O)c(O)c(O)c2)[C@H]1O` [compound 10] showed an inhibition at 6.25 µM [1, 5] of 81.5%, an inhibition at 25 µM [1, 6] of 98.9% and an inhibition at 50 µM [1, 7] of 98.6%. It also gave an inhibition at 100 µM ([1]; 100 µM, read-out: inhibition ratio (%)) of 99.4% and an inhibition at 200 µM ([1]; 200 µM, read-out: inhibition ratio (%)) of 99.6%.

`O=c1c(O)c(-c2cc(O)c(O)c(O)c2)oc2cc(OP(=O)(Oc3ccccc3)Oc3ccccc3)cc(O)c12` [compound 9] showed an inhibition at 0.78125 µM ([1]; 0.78125 µM, read-out: inhibition ratio (%)) of 10.1%, an inhibition at 3.125 µM ([1]; 3.125 µM, read-out: inhibition ratio (%)) of 57.7% and an inhibition at 6.25 µM [1, 5] of 78.1%. It also gave an inhibition at 25 µM [1, 6] of 96% and an inhibition at 50 µM [1, 7] of 99.4%.

`O=c1c(-c2ccc(O[C@@H]3O[C@H](CO)[C@@H](O)[C@H](O)[C@H]3O)cc2)coc2cc(O)cc(O)c12` [Sophoricoside] was tested, and the inhibition at 10 µM [1, 8] was 10%.

Compound `O=c1c(-c2ccc(O)cc2)coc2cc(O)cc(O)c12` [Genistein] has an inhibition at 10 µM [1, 8] of 15%.

`O=c1c(-c2ccc(O)cc2)coc2cc(O[C@@H]3O[C@H](CO)[C@@H](O)[C@H](O)[C@H]3O)cc(O)c12` [Genistin] gave an inhibition at 10 µM [1, 8] of 25.5%.

With `O=c1c(O)c(-c2cc(O)c(O)c(O)c2)oc2cc(O)cc(O)c12` [myricetin, 3,5,7,3′,4′,5′-hexahydroxyflavone] the “Inhibition (%) @10 μM” value ([1]; 10 µM) was > 90%, the inhibition at 10 µM [1, 8] was 97.6% and the inhibition at 0.3125 µM ([1]; read-out: inhibition ratio (%)) was 27.5%. For the same compound, the inhibition at 0.625 µM ([1]; read-out: inhibition ratio (%)) was 44.1%, the inhibition at 5 µM ([1]; read-out: inhibition ratio (%)) was 96.1% and the inhibition at 10 µM ([1]; read-out: inhibition ratio (%)) was 98.2%. The inhibition at 20 µM ([1]; read-out: inhibition ratio (%)) was 97.9%, the inhibition at 40 µM ([1]; read-out: inhibition ratio (%)) was 98.8% and the inhibition at […] ([1]; read-out: inhibition ratio (%)) was 65.6% and 85.5%. For the same compound, the “increase in molecular weight of the protease (covalent labeling)” value [2] was 316 Da, the KI (inactivation) [3] was 16.9 µM and 15.2 µM and 15 µM and the “fluorescent labeling in mixture of HEK293T lysate and recombinant 3CLpro” value [4] was “only significantly reduced the fluorescent labeling of the protease”. For the same compound, the “fluorescent labeling of recombinant SARS-CoV-2 3CLpro by maleimide probe” value [4] was “completely block”.

Compound `COc1ccc(-c2oc3cc(O)cc(O)c3c(=O)c2O)cc1` [Kaempferide] has an inhibition at 10 µM [1, 8] of 8.1%.

In the case of `COc1cc(O)c2c(c1)O[C@H](c1cc(O)c(O)c(O)c1)[C@@H](O)C2=O` [compound 7, 7-O-methyl dihydromyricetin], the IC50 [1] was 270 nM (2×) and 240 nM, the inhibition at 0.0488281 µM ([1]; read-out: inhibition ratio (%)) was 8.15% and the inhibition at 0.0976562 µM ([1]; read-out: inhibition ratio (%)) was 25.7%. It also gave an inhibition at 0.390625 µM ([1]; read-out: inhibition ratio (%)) of 54.6%, an inhibition at 0.78125 µM ([1]; read-out: inhibition ratio (%)) of 84.2% and an inhibition at 1.5625 µM ([1]; read-out: inhibition ratio (%)) of 97.1%. It also gave an inhibition at 3.125 µM ([1]; read-out: inhibition ratio (%)) of 94.4%, an inhibition at 6.25 µM ([1]; read-out: inhibition ratio (%)) of 98.2% and an inhibition at 25 µM ([1]; read-out: inhibition ratio (%)) of 94.6%. For the same compound, the inhibition at 50 µM ([1]; read-out: inhibition ratio (%)) was 95.6% and the inhibition at […] ([1]; read-out: inhibition ratio (%)) was 36.2% and 99.3%.

Compound `COc1ccc([C@@H]2CC(=O)c3c(O)cc(O)cc3O2)cc1O` [Hesperetin] has an inhibition at 10 µM [1, 8] of 13.8%.

`COc1cc(-c2oc3cc(O)cc(O)c3c(=O)c2O)ccc1O` [Isorhamnetin] showed an inhibition at 10 µM [1, 8] of -2.6%.

In the case of `O=C1C[C@@H](c2ccc(O)c(O)c2)Oc2cc(O)cc(O)c21` [Eriodictyol], the inhibition at 10 µM [1, 8] was 34.5%.

Work on `COc1ccc(-c2coc3cc(O)ccc3c2=O)cc1` [Formononetin] yielded an inhibition at 10 µM [1, 8] of 16%.

With `O=C1c2c(O)cc(O)cc2O[C@H](c2cc(O)c(O)c(O)c2)[C@H]1O` [dihydromyricetin] the “Inhibition (%) @10 μM” value ([1]; 10 µM) was > 90%, the inhibition at 10 µM [1, 8] was 93.8% and the inhibition at 0.3125 µM ([1]; read-out: inhibition ratio (%)) was 13%. It also gave an inhibition at 0.390625 µM ([1]; read-out: inhibition ratio (%)) of 15%, an inhibition at 0.625 µM ([1]; read-out: inhibition ratio (%)) of 24.1% and an inhibition at 0.78125 µM ([1]; read-out: inhibition ratio (%)) of 39.3%. It also gave an inhibition at 1.5625 µM ([1]; read-out: inhibition ratio (%)) of 58.9%, an inhibition at 3.125 µM ([1]; read-out: inhibition ratio (%)) of 82.7% and an inhibition at 5 µM ([1]; read-out: inhibition ratio (%)) of 87.5%. For the same compound, the inhibition at 6.25 µM ([1]; read-out: inhibition ratio (%)) was 95%, the inhibition at 10 µM ([1]; read-out: inhibition ratio (%)) was 97.8% and the inhibition at 20 µM ([1]; read-out: inhibition ratio (%)) was 99.5%. The inhibition at 40 µM ([1]; read-out: inhibition ratio (%)) was 98.8% and the inhibition at […] ([1]; read-out: inhibition ratio (%)) was 45.2% and 85% and 98.5%.

In the case of `COc1cc(O)c2c(=O)c(O)c(-c3cc(O)c(O)c(O)c3)oc2c1` [compound 3, 7-O-methyl myricetin], the IC50 [1] was 0.31 µM, the inhibition at 0.15625 µM ([1]; read-out: inhibition ratio (%)) was 28.3% and the inhibition at 0.3125 µM ([1]; read-out: inhibition ratio (%)) was 43.1%. For the same compound, the inhibition at 5 µM ([1]; read-out: inhibition ratio (%)) was 96.8%, the inhibition at 10 µM ([1]; read-out: inhibition ratio (%)) was 98.5% and the inhibition at […] ([1]; read-out: inhibition ratio (%)) was 89.4% and 96.2%.

In the case of `O=c1c(O)c(-c2cc(O)c(O)c(O)c2)oc2cc(OCC3CCCC3)cc(O)c12` [compound 6, 7-O-cyclopentylmethyl-myricetin], the pIC50 ([1]; read-out: IC50) was 5.65 and 5.64 and 5.55 and 5.61.

With `COc1ccc(-c2cc(=O)c3c(O)cc(O)cc3o2)cc1O` [Diosmetin] the inhibition at 10 µM [1, 8] was 11.3%.

With `O=c1c(O)c(-c2ccc(O)c(O)c2)oc2cc(O)cc(O)c12` [Quercetin] the inhibition at 10 µM [1, 8] was 41.3%.

`O=c1cc(-c2ccc(O)cc2)oc2cc(O)cc(O)c12` [Apigenin] showed an inhibition at 10 µM [1, 8] of -1%.

For `O=C1c2c(O)cc(O)cc2OC(c2ccc(O)c(O)c2)C1O` (stereo not shown) [Taxifolin], the inhibition at 10 µM [1, 8] was 28%.
